According to ChEMBL document CHEMBL1268953, “Discovery of novel 2-aryl-4-benzoyl-imidazoles targeting the colchicines binding site in tubulin as potential anticancer agents” (J Med Chem, 2010):

Tested on: not listed separately
Assay: Cytotoxicity against human WM164 cells after 48 hrs by sulforhodamine B assay
Type: functional, cell-based
Conditions: Homo sapiens, WM164, 48 h
In the case of `COc1ccc(-c2nc(C(=O)c3ccc(F)cc3)c[nH]2)cc1OC`, the IC50 is reported as 1.4 µM.
`Cc1ccc(C(=O)c2c[nH]c(-c3ccccc3)n2)cc1` showed an IC50 greater than 10 µM.
In the case of `Cc1cccc(C(=O)c2c[nH]c(-c3ccccc3)n2)c1`, the IC50 is reported as greater than 10 µM.
Molecule `O=S(=O)(c1ccccc1)n1ccnc1-c1ccccc1` has an IC50 greater than 10 µM.
Work on `O=C(c1cccc(F)c1)c1c[nH]c(-c2ccccc2)n1` yielded an IC50 greater than 10 µM.
For `O=C(c1cc(O)c(O)c(O)c1)c1c[nH]c(-c2cc(O)c(O)c(O)c2)n1`, the IC50 was greater than 10 µM.
`COc1cc(C(=O)c2c[nH]c(-c3ccc(OCc4ccccc4)cc3)n2)cc(OC)c1OC` showed an IC50 of 5.5 µM.
Work on `O=C(c1ccc(F)cc1)c1c[nH]c(-c2ccc(OCc3ccccc3)cc2)n1` yielded an IC50 of 0.09 µM.
With `COc1cc(C(=O)c2c[nH]c(-c3ccc(O)cc3)n2)cc(OC)c1OC` the IC50 was 1.8 µM.
`O=C(c1ccc(F)cc1)c1c[nH]c(-c2ccc(O)cc2)n1` gave an IC50 greater than 10 µM.

Tested on: PC-3
Assay: cells
Conditions: Homo sapiens, PC-3, 48 h
Description: Cytotoxicity against human PC3 cells after 48 hrs by sulforhodamine B assay
For `COc1ccc(-c2nc(C(=O)c3ccc(F)cc3)c[nH]2)cc1OC`, the IC50 was 10 µM.
Work on `Cc1ccc(C(=O)c2c[nH]c(-c3ccccc3)n2)cc1` yielded an IC50 greater than 10 µM.
For `Cc1cccc(C(=O)c2c[nH]c(-c3ccccc3)n2)c1`, the IC50 was greater than 10 µM.
In the case of `O=S(=O)(c1ccccc1)n1ccnc1-c1ccccc1`, the IC50 is reported as greater than 10 µM.
Work on `O=C(c1cccc(F)c1)c1c[nH]c(-c2ccccc2)n1` yielded an IC50 greater than 10 µM.
With `O=C(c1cc(O)c(O)c(O)c1)c1c[nH]c(-c2cc(O)c(O)c(O)c2)n1` the IC50 was greater than 10 µM.
For `COc1cc(C(=O)c2c[nH]c(-c3ccc(OCc4ccccc4)cc3)n2)cc(OC)c1OC`, the IC50 was 10 µM.
In the case of `O=C(c1ccc(F)cc1)c1c[nH]c(-c2ccc(OCc3ccccc3)cc2)n1`, the IC50 is reported as 0.079 µM.
For `O=C(c1ccc(F)cc1)c1c[nH]c(-c2ccc(O)cc2)n1`, the IC50 was greater than 10 µM.

Tested on: A-375
Assay: Cytotoxicity against human A375 cells after 48 hrs by sulforhodamine B assay
Type: functional, cell-based
Conditions: Homo sapiens, A-375, 48 h
Molecule `Cc1ccc(C(=O)c2c[nH]c(-c3ccccc3)n2)cc1` has an IC50 greater than 10 µM.
Molecule `Cc1cccc(C(=O)c2c[nH]c(-c3ccccc3)n2)c1` has an IC50 greater than 10 µM.
For `O=S(=O)(c1ccccc1)n1ccnc1-c1ccccc1`, the IC50 was greater than 10 µM.
`O=C(c1cccc(F)c1)c1c[nH]c(-c2ccccc2)n1` showed an IC50 greater than 10 µM.
`O=C(c1cc(O)c(O)c(O)c1)c1c[nH]c(-c2cc(O)c(O)c(O)c2)n1` gave an IC50 greater than 10 µM.
Molecule `COc1cc(C(=O)c2c[nH]c(-c3ccc(OCc4ccccc4)cc3)n2)cc(OC)c1OC` has an IC50 of 5.2 µM.
Molecule `O=C(c1ccc(F)cc1)c1c[nH]c(-c2ccc(OCc3ccccc3)cc2)n1` has an IC50 of 0.093 µM.
`COc1cc(C(=O)c2c[nH]c(-c3ccc(O)cc3)n2)cc(OC)c1OC` gave an IC50 of 1.6 µM.

Tested on: DU-145
Assay: cells
Conditions: Homo sapiens, DU-145, 48 h
Description: Cytotoxicity against human DU145 cells after 48 hrs by sulforhodamine B assay
In the case of `COc1ccc(-c2nc(C(=O)c3ccc(F)cc3)c[nH]2)cc1OC`, the IC50 is reported as 10 µM.
Molecule `Cc1ccc(C(=O)c2c[nH]c(-c3ccccc3)n2)cc1` has an IC50 greater than 10 µM.
Molecule `Cc1cccc(C(=O)c2c[nH]c(-c3ccccc3)n2)c1` has an IC50 greater than 10 µM.
`O=S(=O)(c1ccccc1)n1ccnc1-c1ccccc1` showed an IC50 greater than 10 µM.
Work on `O=C(c1cccc(F)c1)c1c[nH]c(-c2ccccc2)n1` yielded an IC50 greater than 10 µM.
Molecule `O=C(c1cc(O)c(O)c(O)c1)c1c[nH]c(-c2cc(O)c(O)c(O)c2)n1` has an IC50 greater than 10 µM.
`COc1cc(C(=O)c2c[nH]c(-c3ccc(OCc4ccccc4)cc3)n2)cc(OC)c1OC` showed an IC50 of 10 µM.
In the case of `O=C(c1ccc(F)cc1)c1c[nH]c(-c2ccc(OCc3ccccc3)cc2)n1`, the IC50 is reported as 0.06 µM.
Work on `O=C(c1ccc(F)cc1)c1c[nH]c(-c2ccc(O)cc2)n1` yielded an IC50 greater than 10 µM.

Tested on: not listed separately
Assay: Cytotoxicity against mouse B16-F1 cells after 48 hrs by sulforhodamine B assay
Type: functional, cell-based
Conditions: Mus musculus, B16-F1, 48 h
With `COc1ccc(-c2nc(C(=O)c3ccc(F)cc3)c[nH]2)cc1OC` the IC50 was 4.21 µM.
With `Cc1ccc(C(=O)c2c[nH]c(-c3ccccc3)n2)cc1` the IC50 was greater than 10 µM.
In the case of `Cc1cccc(C(=O)c2c[nH]c(-c3ccccc3)n2)c1`, the IC50 is reported as greater than 10 µM.
Molecule `O=S(=O)(c1ccccc1)n1ccnc1-c1ccccc1` has an IC50 greater than 10 µM.
Molecule `O=C(c1cccc(F)c1)c1c[nH]c(-c2ccccc2)n1` has an IC50 greater than 10 µM.
In the case of `O=C(c1cc(O)c(O)c(O)c1)c1c[nH]c(-c2cc(O)c(O)c(O)c2)n1`, the IC50 is reported as greater than 10 µM.
Work on `O=C(c1ccc(F)cc1)c1c[nH]c(-c2ccc(OCc3ccccc3)cc2)n1` yielded an IC50 of 0.117 µM.
Work on `COc1cc(C(=O)c2c[nH]c(-c3ccc(O)cc3)n2)cc(OC)c1OC` yielded an IC50 of 2.4 µM.
Molecule `O=C(c1ccc(F)cc1)c1c[nH]c(-c2ccc(O)cc2)n1` has an IC50 greater than 10 µM.

Tested on: LNCaP
Assay: Cytotoxicity against human LNCAP cells after 48 hrs by sulforhodamine B assay
Type: functional, cell-based
Conditions: not given
For `COc1ccc(-c2nc(C(=O)c3ccc(F)cc3)c[nH]2)cc1OC`, the IC50 was 2.53 µM.
`Cc1ccc(C(=O)c2c[nH]c(-c3ccccc3)n2)cc1` showed an IC50 greater than 10 µM.
For `Cc1cccc(C(=O)c2c[nH]c(-c3ccccc3)n2)c1`, the IC50 was greater than 10 µM.
In the case of `O=S(=O)(c1ccccc1)n1ccnc1-c1ccccc1`, the IC50 is reported as greater than 10 µM.
Molecule `O=C(c1cccc(F)c1)c1c[nH]c(-c2ccccc2)n1` has an IC50 greater than 10 µM.
For `O=C(c1cc(O)c(O)c(O)c1)c1c[nH]c(-c2cc(O)c(O)c(O)c2)n1`, the IC50 was greater than 10 µM.
For `COc1cc(C(=O)c2c[nH]c(-c3ccc(OCc4ccccc4)cc3)n2)cc(OC)c1OC`, the IC50 was 2.79 µM.
Molecule `O=C(c1ccc(F)cc1)c1c[nH]c(-c2ccc(OCc3ccccc3)cc2)n1` has an IC50 of 0.044 µM.
Work on `O=C(c1ccc(F)cc1)c1c[nH]c(-c2ccc(O)cc2)n1` yielded an IC50 of 10 µM.

Tested on: PPC-1
Assay: Cytotoxicity against human PPC1 cells after 48 hrs by sulforhodamine B assay
Type: functional, cell-based
Conditions: Homo sapiens, PPC-1, 48 h
In the case of `COc1ccc(-c2nc(C(=O)c3ccc(F)cc3)c[nH]2)cc1OC`, the IC50 is reported as 2.17 µM.
For `Cc1ccc(C(=O)c2c[nH]c(-c3ccccc3)n2)cc1`, the IC50 was greater than 10 µM.
For `Cc1cccc(C(=O)c2c[nH]c(-c3ccccc3)n2)c1`, the IC50 was greater than 10 µM.
`O=S(=O)(c1ccccc1)n1ccnc1-c1ccccc1` gave an IC50 greater than 10 µM.
Work on `O=C(c1cccc(F)c1)c1c[nH]c(-c2ccccc2)n1` yielded an IC50 greater than 10 µM.
For `O=C(c1cc(O)c(O)c(O)c1)c1c[nH]c(-c2cc(O)c(O)c(O)c2)n1`, the IC50 was greater than 10 µM.
Molecule `COc1cc(C(=O)c2c[nH]c(-c3ccc(OCc4ccccc4)cc3)n2)cc(OC)c1OC` has an IC50 of 2.84 µM.
With `O=C(c1ccc(F)cc1)c1c[nH]c(-c2ccc(OCc3ccccc3)cc2)n1` the IC50 was 0.043 µM.
`O=C(c1ccc(F)cc1)c1c[nH]c(-c2ccc(O)cc2)n1` gave an IC50 greater than 10 µM.
